Laboratory results published in patent publication US20220127247A1, “N-(PYRIDIN-2-YL)PYRIDINE-SULFONAMIDE DERIVATIVES AND THEIR USE IN THE TREATMENT OF DISEASE” (NOVARTIS AG, priority 2019, published 2022).

Target: T1, delF508-CFTR (Homo sapiens, UniProt P13569, DEL508-508)
T1 construct: expressed in transfected cells
Test: Measurement of delF508-CFTR-HRP surface expression in CFBE41o- cells
Assay type: cell-based
Conditions: for EC50: HRP-tagged delF508-CFTR in CFBE41o- cells, 24 h with compound, luminescence, 10-point curve, top 10 μM; for Emax: efficacy relative to reference compound 3-(6-(1-(2,2-difluorobenzo[d][1,3]dioxol-5-yl)cyclopropane-1-carboxamido)-3-methylpyridin-2-yl)benzoic acid, CFBE41o- cells, 24 h, read-out: DelF508-CFTR-HRP Amax %
From the text: Measurement of delF508-CFTR-HRP Surface Expression in CFBE41o-Cells
This assay quantifies the cell surface expressions of the mutant CFTR channel using an extracellular HRP tag.
A cellular assay was developed to measure surface expression of horseradish peroxidase (HRP) tagged delF508-CFTR in the human bronchial epithelial immortalized CFBE41o-cell line (Phuan, P. W., et al, (2014) Molecular Pharmacology 86:42-51). Specifically, the HRP sequence was inserted into the fourth extracellular loop of delF508-CFTR and stably expressed in CFBE41o-cells. Cells were seeded in 384 well plate at a density of 5000 cells/well and incubated at 37° C. for 12 to 24 hours in medium (Gibco MEM #11095, 10% FBS, 10 mM HEPES, […], 200 μg/mL G418, 3 μg/mL Puromycin). The delF508-CFTR-HRP expression was induced with 500 ng/mL doxycycline (Sigma D-9891, dissolved in H2O and sterile filtered) in medium and the cells were incubated at 37° C. for 48 h. Old medium was removed and fresh medium was added containing 500 ng/mL doxycycline and unknown test compound at required test concentration in DMSO, not exceeding 0.5% final DMSO concentration. The highest concentration tested was 10 μM with a 10-point concentration response curve using a 3-fold dilution. After addition of compounds, the cells were incubated for 24 h at 37° C. On the final day, cells were washed four times in PBS containing 1 mM MgCl2 and 0.1 mM CaCl2. HRP-Substrate (SuperSignal ELISA Pico, Fisher #37069) 20 μl/well was added and the luminescence signal was determined (Viewlux, Perkin Elmer). Light was emitted upon addition of exogenous HRP-Substrate only when delF508-CFTR-HRP reached the cell surface and the HRP tag was accessible to the HRP-Substrate (note: HRP-Substrate cannot cross the lipid bilayer to reach delF508-CFTR-HRP misfolded within the cell).
The median activity for the lowest concentration of the compounds on each assay plate was calculated and this value was used to normalize the signal for each well on the respective plate. Three replicates at each concentrations for every compound were run to determine one EC50. The median value was determined and used to calculate compound activities as described below. Effective half maximal values (EC50) were calculated for each compound by performing logistic regression on measured dose-response data points using the equation: […]
where “Y” is the observed activity, “Bottom” is the lowest observed value, “Top” is the highest observed value, and the “Hill coefficient” gives the largest absolute value of the slope. The curve fitting is carried out by a curve fitting program implemented at GNF using Matlab (Mathworks).
The dose response curves also were used to calculate Fold Change (FC) using the equation: […]
Compound efficacy relative to the reference compound 3-(6-(1-(2,2-difluorobenzo[d][1,3]dioxol-5-yl)cyclopropane-1-carboxamido)-3-methylpyridin-2-yl)benzoic acid was determined using the following formula: […]

T1 sequence (P13569 with tags, fused parts or gaps DEL508-508): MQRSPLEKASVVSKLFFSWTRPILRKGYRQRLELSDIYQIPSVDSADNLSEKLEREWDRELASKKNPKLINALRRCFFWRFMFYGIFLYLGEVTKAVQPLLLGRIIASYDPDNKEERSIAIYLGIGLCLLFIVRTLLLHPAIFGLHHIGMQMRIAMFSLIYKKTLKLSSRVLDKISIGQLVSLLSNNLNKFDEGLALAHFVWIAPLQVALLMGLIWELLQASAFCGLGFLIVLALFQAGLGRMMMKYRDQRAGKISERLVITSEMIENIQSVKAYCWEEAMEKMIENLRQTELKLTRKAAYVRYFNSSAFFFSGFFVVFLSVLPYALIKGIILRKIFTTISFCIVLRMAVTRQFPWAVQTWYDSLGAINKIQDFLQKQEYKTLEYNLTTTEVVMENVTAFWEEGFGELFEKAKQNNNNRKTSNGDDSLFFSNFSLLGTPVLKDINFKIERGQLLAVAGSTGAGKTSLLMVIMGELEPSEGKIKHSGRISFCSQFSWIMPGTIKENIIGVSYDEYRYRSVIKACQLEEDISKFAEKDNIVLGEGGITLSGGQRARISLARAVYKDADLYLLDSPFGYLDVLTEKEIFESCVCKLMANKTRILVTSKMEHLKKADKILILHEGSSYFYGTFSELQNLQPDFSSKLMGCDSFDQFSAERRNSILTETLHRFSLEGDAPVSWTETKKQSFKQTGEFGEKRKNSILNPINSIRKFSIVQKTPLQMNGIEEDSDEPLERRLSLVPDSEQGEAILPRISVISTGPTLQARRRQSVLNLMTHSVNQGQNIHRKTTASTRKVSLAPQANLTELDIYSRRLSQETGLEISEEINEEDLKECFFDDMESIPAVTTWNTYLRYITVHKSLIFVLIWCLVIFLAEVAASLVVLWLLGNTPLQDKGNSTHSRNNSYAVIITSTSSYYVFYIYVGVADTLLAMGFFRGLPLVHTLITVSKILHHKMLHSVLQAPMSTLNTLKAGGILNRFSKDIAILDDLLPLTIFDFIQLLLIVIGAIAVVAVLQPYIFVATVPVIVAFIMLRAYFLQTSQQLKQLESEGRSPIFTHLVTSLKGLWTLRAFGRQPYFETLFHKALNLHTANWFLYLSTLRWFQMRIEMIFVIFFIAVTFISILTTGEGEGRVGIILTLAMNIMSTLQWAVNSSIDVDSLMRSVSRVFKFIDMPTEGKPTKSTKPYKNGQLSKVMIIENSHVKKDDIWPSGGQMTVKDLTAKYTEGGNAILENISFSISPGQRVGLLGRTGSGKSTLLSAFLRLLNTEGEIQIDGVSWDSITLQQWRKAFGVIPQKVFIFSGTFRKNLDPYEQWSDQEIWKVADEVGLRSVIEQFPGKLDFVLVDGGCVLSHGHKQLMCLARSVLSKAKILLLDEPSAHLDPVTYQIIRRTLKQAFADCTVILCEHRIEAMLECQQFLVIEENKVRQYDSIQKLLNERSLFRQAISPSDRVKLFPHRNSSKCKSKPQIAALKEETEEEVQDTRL

EC50 | Emax | Compound
1.81 µM | 361% | Cc1ccccc1-c1nc(NS(=O)(=O)c2cccc(NC3CCCC(C(=O)O)C3)n2)ccc1C(F)(F)F (mixture of isomers) [Compound 105, 3-((6-(N-(6-(o-tolyl)-5-(trifluoromethyl)pyridin-2-yl)sulfamoyl)pyridin-2-yl)amino)cyclohexane-1-carboxylic Acid]
1.95 µM | 392% | Cc1ccccc1-c1nc(NS(=O)(=O)c2cccc(N[C@@H]3CCC[C@H](C(=O)O)C3)n2)ccc1C(F)(F)F (racemic) [106a 106b (racemic mixture)]
2.07 µM | 763% | Cc1ccccc1-c1nc(NS(=O)(=O)c2cccc(N[C@H]3[C@@H](C(=O)O)[C@H]4C=C[C@@H]3C4)n2)ccc1C(F)(F)F (racemic) [107a 107b (racemic mixture)]
2.07 µM | 569% | Cc1ccccc1-c1nc(NS(=O)(=O)c2cccc(N[C@@H]3[C@H]4CC[C@H](C4)[C@@H]3C(=O)O)n2)ccc1C(F)(F)F (racemic) [108a 108b (racemic mixture)]
2.32 µM | 700% | Cc1ccccc1-c1nc(NS(=O)(=O)c2cccc(N[C@@H]3[C@@H]4CC[C@@H](C4)[C@@H]3C(=O)O)n2)ccc1C(F)(F)F (racemic) [109a 109b (racemic mixture)]
1.62 µM | 785% | Cc1ccccc1-c1nc(NS(=O)(=O)c2cccc(N3CCC[C@@](C)(CC(=O)O)C3)n2)ccc1C(F)(F)F (single isomer, unassigned) [Compound 122]
1.61 µM |  | Cc1ccccc1-c1nc(NS(=O)(=O)c2cccc(N3CCC[C@](C)(CC(=O)O)C3)n2)ccc1C(F)(F)F (single isomer, unassigned) [Compound 123]
2.15 µM | 291% | Cc1cccc(C)c1-c1nc(NS(=O)(=O)c2cccc(NCCC(=O)O)n2)ccc1Cl [Compound 1, 3-((6-(N-(5-chloro-6-(2,6-dimethylphenyl)pyridin-2-yl)sulfamoyl)pyridin-2-yl)amino)propanoic Acid]
2.72 µM | 124% | Cc1cccc(C)c1-c1nc(NS(=O)(=O)c2ccnc(NCCC(=O)O)c2)ccc1Cl [Compound 2, 3-((4-(N-(5-chloro-6-(2,6-dimethylphenyl)pyridin-2-yl)sulfamoyl)pyridin-2-yl)amino)propanoic Acid]
2.58 µM | 722% | Cc1cccc(C)c1-c1nc(NS(=O)(=O)c2cccc(NCCCC(=O)O)n2)ccc1Cl [Compound 3, 4-((6-(N-(5-chloro-6-(2,6-dimethylphenyl)pyridin-2-yl)sulfamoyl)pyridin-2-yl)amino)butanoic Acid]
2.19 µM |  | Cc1cccc(C)c1-c1nc(NS(=O)(=O)c2cccc(NCCCCC(=O)O)n2)ccc1Cl [Compound 4, 5-((6-(N-(5-chloro-6-(2,6-dimethylphenyl)pyridin-2-yl)sulfamoyl)pyridin-2-yl)amino)pentanoic Acid]
2.58 µM | 596% | Cc1cccc(C)c1-c1nc(NS(=O)(=O)c2cccc(N3CCC(CC(=O)O)CC3)n2)ccc1Cl [Compound 5, 2-(1-(6-(N-(5-chloro-6-(2,6-dimethylphenyl)pyridin-2-yl)sulfamoyl)pyridin-2-yl)piperidin-4-yl)acetic Acid]
1.52 µM | 529% | Cc1ccc(F)cc1-c1nc(NS(=O)(=O)c2cccc(N3CCC(C)(CC(=O)O)CC3)n2)ccc1C(F)(F)F [Compound 6, 2-(1-(6-(N-(6-(5-fluoro-2-methylphenyl)-5-(trifluoromethyl)pyridin-2-yl)sulfamoyl)pyridin-2-yl)-4-methylpiperidin-4-yl)acetic Acid]
1.88 µM | 363% | Cc1ccccc1-c1nc(NS(=O)(=O)c2cccc(N3CCC(C)(CC(=O)O)CC3)n2)ccc1C(F)(F)F [Compound 7, 2-(4-methyl-1-(6-(N-(6-(o-tolyl)-5-(trifluoromethyl)pyridin-2-yl)sulfamoyl)pyridin-2-yl)piperidin-4-yl)acetic Acid]
1.85 µM | 271% | Cc1ccccc1-c1nc(NS(=O)(=O)c2cccc(NCC(C)(C)C(=O)O)n2)ccc1C(F)(F)F [Compound 8, 2,2-dimethyl-3-((6-(N-(6-(o-tolyl)-5-(trifluoromethyl)pyridin-2-yl)sulfamoyl)pyridin-2-yl)amino)propanoic Acid]
2.02 µM | 102% | Cc1ccccc1-c1nc(NS(=O)(=O)c2cccc(N3CCC(O)(C(C)(C)C(=O)O)CC3)n2)ccc1C(F)(F)F [Compound 9, 2-(4-hydroxy-1-(6-(N-(6-(o-tolyl)-5-(trifluoromethyl)pyridin-2-yl)sulfamoyl)pyridin-2-yl)piperidin-4-yl)-2-methylpropanoic Acid]
0.91 µM | 266% | Cc1ccccc1-c1nc(NS(=O)(=O)c2cccc(N3CCC(C(C)(C)C(=O)O)CC3)n2)ccc1C(F)(F)F [Compound 10, 2-methyl-2-(1-(6-(N-(6-(o-tolyl)-5-(trifluoromethyl)pyridin-2-yl)sulfamoyl)pyridin-2-yl)piperidin-4-yl)propanoic Acid]
2.25 µM | 415% | Cc1ccccc1-c1nc(NS(=O)(=O)c2cccc(NCC3(C(=O)O)CC3)n2)ccc1C(F)(F)F [Compound 11, 1-(((6-(N-(6-(o-tolyl)-5-(trifluoromethyl)pyridin-2-yl)sulfamoyl)pyridin-2-yl)amino)methyl)cyclopropane-1-carboxylic Acid]
2.3 µM | 608% | Cc1ccccc1-c1nc(NS(=O)(=O)c2cccc(NCC3(C(=O)O)CCC3)n2)ccc1C(F)(F)F [Compound 12, 1-(((6-(N-(6-(o-tolyl)-5-(trifluoromethyl)pyridin-2-yl)sulfamoyl)pyridin-2-yl)amino)methyl)cyclobutane-1-carboxylic Acid]
2.4 µM | 370% | Cc1c(F)cccc1-c1nc(NS(=O)(=O)c2cccc(N3CCC(C)(CC(=O)O)CC3)n2)ccc1C(F)(F)F [Compound 13, 2-(1-(6-(N-(6-(3-fluoro-2-methylphenyl)-5-(trifluoromethyl)pyridin-2-yl)sulfamoyl)pyridin-2-yl)-4-methylpiperidin-4-yl)acetic Acid]
2.55 µM | 283% | Cc1ccccc1-c1nc(NS(=O)(=O)c2cccc(N3CCC(CC(=O)O)CC3)n2)ccc1C(F)(F)F [Compound 14, 2-(1-(6-(N-(6-(o-tolyl)-5-(trifluoromethyl)pyridin-2-yl)sulfamoyl)pyridin-2-yl)piperidin-4-yl)acetic Acid]
2.14 µM | 397% | CCc1ccccc1-c1nc(NS(=O)(=O)c2cccc(N3CCC(CC(=O)O)CC3)n2)ccc1C(F)(F)F [Compound 15, 2-(1-(6-(N-(6-(2-ethylphenyl)-5-(trifluoromethyl)pyridin-2-yl)sulfamoyl)pyridin-2-yl)piperidin-4-yl)acetic Acid]
2.01 µM | 495% | O=C(O)CC1CCN(c2cccc(S(=O)(=O)Nc3ccc(C(F)(F)F)c(-c4ccccc4-c4ccccc4)n3)n2)CC1 [Compound 16, 2-(1-(6-(N-(6-([1,1′-biphenyl]-2-yl)-5-(trifluoromethyl)pyridin-2-yl)sulfamoyl)pyridin-2-yl)piperidin-4-yl)acetic Acid]
